Laboratory results reported in patent US10167299B2, “1-(3-aminopropyl) substituted cyclic amine compounds, preparation method therefor, and pharmaceutical compositions and uses thereof” (SHANGHAI INSTITUTE OF MATERIA MEDICA, CHINESE ACADEMY OF …, priority 2013, dated 2019).
In brackets after ≈: the same amount, converted by molar mass. Where two headings read alike, the source gives them in different places.

Columns and labels:
[1] = target: CCR5 (Homo sapiens (Human), UniProt P51681); experiment: Calcium flux inhibition experiment; assay type: cell-based; settings: for IC50: HEK293/CCR5-Gα16 cell line, calcium flux, read-out: CCR5 IC50; for calcium influx inhibition effect in words, versus positive control compounds: conclusion from Table 1
Sequence of CCR5 (P51681 whole entry): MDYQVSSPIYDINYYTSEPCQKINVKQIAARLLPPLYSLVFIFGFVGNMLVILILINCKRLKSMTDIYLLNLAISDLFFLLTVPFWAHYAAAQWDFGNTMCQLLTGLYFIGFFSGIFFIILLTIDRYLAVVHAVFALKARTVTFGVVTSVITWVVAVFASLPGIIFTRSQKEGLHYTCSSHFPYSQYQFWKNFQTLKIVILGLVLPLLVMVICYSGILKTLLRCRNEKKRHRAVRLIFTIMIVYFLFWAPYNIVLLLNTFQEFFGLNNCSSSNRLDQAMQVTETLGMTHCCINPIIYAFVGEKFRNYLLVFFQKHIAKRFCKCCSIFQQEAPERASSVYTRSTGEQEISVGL

[2] = tested on: HIV-1SF162 virus strain; experiment: Inhibition activity on TZM-bl cells infected with HIV-1SF162; settings: for EC50: Human immunodeficiency virus 1, TZM-bl; for therapeutic index (TI): TZM-bl cells infected with HIV-1SF162
[3] = Cytotoxicity (CC50) in TZM-bl cells; assay type: cell-based; settings: human
[4] = TZM-bl cells (Table 3), read-out: CC50

Compound	IC50 [1] [nM]	EC50 [2] [µg/mL]	therapeutic index (TI) [2]	CC50 [3] [µg/mL]	CC50 [3, 4] [µg/mL]	calcium influx inhibition effect in words, versus positive control compounds [1]
CC(=O)N[C@@H](CCN1C2CCC1CC(n1c(C)nc3c1CCN(C(=O)C(C)C)C3)C2)c1nccs1 (stereo partly drawn) [Compound 121, N-{(1S)-3-[(3-endo)-3-(5-isobutyryl-2-methyl-4,5,6,7-tetrahydro-1H-imidazo[4,5-c]pyridin-1-yl)-8-azabicyclo[3.2.1]octane-8-yl]-1-(thiazol-2-yl)-propyl}acetamide]	32.3	0.328 (≈ 0.658 µM)	>386.37	> 200		
CCC(=O)N1CCc2c(nc(C)n2C2CC3CCC(C2)N3CC[C@H](NC(C)=O)c2ccc(Cl)s2)C1 (stereo partly drawn) [Compound 127, N-{(1S)-3-[(3-endo)-3-(5-propionyl-2-methyl-4,5,6,7-tetrahydro-1H-imidazo[4,5-c]pyridin-1-yl)-8-azabicyclo[3.2.1]octane-8-yl]-1-(5-chlorothiophen-2-yl)-propyl}acetamide]	22.9	0.145 (≈ 0.28 µM)	>1379.94		> 200	
Cc1nnc(C(C)C)n1C1CC2CCC(C1)N2CC[C@H](NC(=O)C1CCCC1)c1ccc(F)nc1 (stereo partly drawn) [Compound 36]	31.8	> 40			> 200	
COC(=O)N1CCc2c(nc(C)n2C2CC3CCC(C2)N3CC[C@H](NC(C)=O)c2ccc(F)s2)C1 (stereo partly drawn) [Compound 133, Methyl 1-{(endo)-8-[(S)-3-acetamido-3-(5-fluorothiophen-2-yl)-propyl]-8-azabicyclo[3.2.1]octan-3-yl}-2-methyl-1,4,6,7-tetrahydro-5H-imidazo[4,5-c]pyridine-5-carboxylate]	1.78	0.152 (≈ 0.302 µM)	>1313.56	> 200		better than the positive control compounds
CC(=O)N[C@@H](CCN1C2CCC1CC(n1c(C)nc3c1CCN(C(C)=O)C3)C2)c1nccs1 (stereo partly drawn) [Compound 118, N-{(1S)-3-[(3-endo)-3-(5-acetyl-2-methyl-4,5,6,7-tetrahydro-1H-imidazo[4,5-c]pyridin-1-yl)-8-azabicyclo[3.2.1]octane-8-yl]-1-(thiazol-2-yl)-propyl}acetamide]	16.9	0.669 (≈ 1.42 µM)	>168.03		> 200	
Cc1ccc([C@H](CCN2C3CCC2CC(n2c(C)nnc2C(C)C)C3)NC(=O)Cc2ccc(F)cc2)s1 (stereo partly drawn) [Compound 33, 4-fluoro-N-[(1S)-3-[exo-3-(3-isopropyl-5-methyl-4H-1,2,4-triazol-4-yl)-8-azabicyclo[3.2.1]octane-8-yl]-1-(5-methylthiophen-2-yl)propyl]phenylacetamide]	25	0.147 (≈ 0.281 µM)	>328.95	> 200		
CCCC(=O)N1CCc2c(nc(C)n2C2CC3CCC(C2)N3CC[C@H](NC(C)=O)c2ccc(Cl)s2)C1 (stereo partly drawn) [Compound 128, N-{(1S)-3-[(3-endo)-3-(5-n-butyryl-2-methyl-4,5,6,7-tetrahydro-1H-imidazo[4,5-c]pyridin-1-yl)-8-azabicyclo[3.2.1]octane-8-yl]-1-(5-chlorothiophen-2-yl)-propyl}acetamide]	17.5	0.174 (≈ 0.327 µM)	>1150.82	> 200		
Cc1nnc(C(C)C)n1C1CC2CCC(C1)N2CC[C@H](NC(=O)C1CCCCC1)c1ccc(F)s1 (stereo partly drawn) [Compound 38, N-[(1S)-3-[exo-3-(3-isopropyl-5-methyl-4H-1,2,4-triazol-4-yl)-8-azabicyclo[3.2.1]octane-8-yl]-1-(5-fluorothiophen-2-yl)propyl]cyclohexane-1-carboxamide]	9.33	2.61 (≈ 5.2 µM)	>73.64	> 200		comparable to the positive control compounds
